pIC50: −log10 of the molar value.
What was measured:
[1] = Cytotoxicity against human C33A cells assessed as growth inhibition rate at 0.1 to 100 umol/L after 96 hrs by MTT assay; type: functional, C-33-A
[2] = Cytotoxicity against human C33A cells assessed as growth inhibition rate after 96 hrs by MTT assay; type: functional, cell-based; details: C-33-A
[3] = Cytotoxicity against human HCT8 cells assessed as growth inhibition rate after 96 hrs by MTT assay; type: functional, cell-based; details: HCT-8, 96 h
[4] = Cytotoxicity against human Bel7402 cells assessed as growth inhibition rate at 0.1 to 100 umol/L after 96 hrs by MTT assay; type: functional, Bel-7402
[5] = Cytotoxicity against human HCT8 cells assessed as growth inhibition rate at 0.1 to 100 umol/L after 96 hrs by MTT assay; type: functional, HCT-8
A549 [6] = assay: Cytotoxicity against human A549 cells assessed as growth inhibition rate at 0.1 to 100 umol/L after 96 hrs by MTT assay; type: functional
A549 [7] = assay: Cytotoxicity against human A549 cells assessed as growth inhibition rate after 96 hrs by MTT assay; type: functional, cell-based; details: A549, 96 h
[8] = Cytotoxicity against human Bel7402 cells assessed as growth inhibition rate after 96 hrs by MTT assay; type: functional, cell-based; details: Bel-7402, 96 h
HCT-8 = assay: Ratio of 5-fluorouracil IC50 to compound IC50 for human HCT8 cells assessed as growth inhibition rate after 96 hrs by MTT assay; type: functional
Bel-7402 = assay: Ratio of 5-fluorouracil IC50 to compound IC50 for human Bel7402 cells assessed as growth inhibition rate after 96 hrs by MTT assay; type: functional
A549 [9] = assay: Ratio of 5-fluorouracil IC50 to compound IC50 for human A549 cells assessed as growth inhibition rate after 96 hrs by MTT assay; type: functional
C-33-A = assay: Ratio of 5-fluorouracil IC50 to compound IC50 for human C33A cells assessed as growth inhibition rate after 96 hrs by MTT assay; type: functional

Row | Compound | growth inhibition (GI) [1] [%] | IC50 [2] [µg/mL] | IC50 [3] [µg/mL] | growth inhibition (GI) [4] [%] | growth inhibition (GI) [5] [%] | growth inhibition (GI) (A549 [6]) [%] | IC50 (A549 [7]) [µg/mL] | IC50 [8] [µg/mL] | pIC50 [3] | pIC50 (A549 [7]) | pIC50 [8] | pIC50 [2] | Ratio IC50 (HCT-8) | Ratio IC50 (Bel-7402) | Ratio IC50 (A549 [9]) | Ratio IC50 (C-33-A)
1 | C1=C2c3cc4c(cc3CCN2Cc2c1ccc1c2OCO1)OCO4 | -10.65 | > 5 | > 5 | 27.27 | 30.88 | 32.09 | > 5 | > 5 |  |  |  |  |  |  |  | 
2 | Cc1c2[n+](cc3c4c(ccc13)OCO4)CCc1cc3c(cc1-2)OCO3.[Cl-] | -7.22 | > 5 | > 5 | 2.43 | 35.62 | 42.83 | > 5 | > 5 |  |  |  |  |  |  |  | 
3 | CCc1c2[n+](cc3c4c(ccc13)OCO4)CCc1cc3c(cc1-2)OCO3.[Cl-] | -7.45 | > 5 | > 5 | 10.19 | 39.7 | 41.74 | > 5 | > 5 |  |  |  |  |  |  |  | 
4 | CCCc1c2[n+](cc3c4c(ccc13)OCO4)CCc1cc3c(cc1-2)OCO3.[Cl-] | -7.69 | > 5 | > 5 | -23.7 | 40.68 | 45.12 | > 5 | > 5 |  |  |  |  |  |  |  | 
5 | CCCCc1c2[n+](cc3c4c(ccc13)OCO4)CCc1cc3c(cc1-2)OCO3.[Cl-] | -6.66 | > 5 | > 5 | 21.81 | 32.57 | 32.79 | > 5 | > 5 |  |  |  |  |  |  |  | 
6 | CCCCCc1c2[n+](cc3c4c(ccc13)OCO4)CCc1cc3c(cc1-2)OCO3.[Cl-] | -5.79 | > 5 |  | 5.82 | 59.02 | 49.34 | > 5 | > 5 | 5.16 |  |  |  |  |  |  | 
7 | CC(C)CCc1c2[n+](cc3c4c(ccc13)OCO4)CCc1cc3c(cc1-2)OCO3.[Cl-] | 48.99 | > 5 | > 5 | -2.18 | 30.75 | 38.49 | > 5 | > 5 |  |  |  |  |  |  |  | 
8 | CCCCCCc1c2[n+](cc3c4c(ccc13)OCO4)CCc1cc3c(cc1-2)OCO3.[Cl-] | 52.51 | > 5 |  | 74.26 | 59.24 | 60.71 |  |  | 5.18 | 5.25 | 5.52 |  |  |  |  | 
9 | CCCCCCCc1c2[n+](cc3c4c(ccc13)OCO4)CCc1cc3c(cc1-2)OCO3.[Cl-] | 63.75 |  |  | 86.6 | 61.02 | 71.89 |  |  | 5.23 | 5.59 | 5.72 | 5.16 |  |  |  | 
10 | CCCCCCCCc1c2[n+](cc3c4c(ccc13)OCO4)CCc1cc3c(cc1-2)OCO3.[Cl-] | 63.28 |  |  | 89.32 | 65.54 | 73.99 |  |  | 5.48 | 5.73 | 5.84 | 5.14 |  |  |  | 
11 | CCCCCCCCCc1c2[n+](cc3c4c(ccc13)OCO4)CCc1cc3c(cc1-2)OCO3.[Cl-] | -16.26 | > 5 | > 5 | 43.46 | 43.24 | 49.29 | > 5 | > 5 |  |  |  |  |  |  |  | 
12 | CCCCCCCCCCc1c2[n+](cc3c4c(ccc13)OCO4)CCc1cc3c(cc1-2)OCO3.[Cl-] | 61.31 |  |  | 89.98 | 71.93 | 75.26 |  |  | 5.74 | 5.74 | 5.84 | 5.37 |  |  |  | 
13 | CCCCCCCCCCCc1c2[n+](cc3c4c(ccc13)OCO4)CCc1cc3c(cc1-2)OCO3.[Cl-] | 86.84 |  |  | 91.22 | 92.7 | 94.28 |  |  | 6.09 | 6.21 | 5.91 | 5.80 | 4 | 2 | 11 | 3
14 | CCCCCCCCCCCCc1c2[n+](cc3c4c(ccc13)OCO4)CCc1cc3c(cc1-2)OCO3.[Cl-] | 84.73 |  |  | 87.63 | 91.28 | 94.03 |  |  | 5.99 | 6.23 | 5.88 | 5.84 |  |  |  | 

From ChEMBL document CHEMBL3352350, “Syntheses and structure-activity relationships in cytotoxicities of 13-substituted quaternary coptisine derivatives” (Eur J Med Chem, 2014)
